Data on 28 compounds can be found in article PMC6563694 (Angewandte Chemie (International Ed. in English), 2019).

Usually Ki stands for a measure of affinity in units of concentration, obtained from inhibition or displacement.

Sequence of rat H3R (Q9QYN8 whole entry): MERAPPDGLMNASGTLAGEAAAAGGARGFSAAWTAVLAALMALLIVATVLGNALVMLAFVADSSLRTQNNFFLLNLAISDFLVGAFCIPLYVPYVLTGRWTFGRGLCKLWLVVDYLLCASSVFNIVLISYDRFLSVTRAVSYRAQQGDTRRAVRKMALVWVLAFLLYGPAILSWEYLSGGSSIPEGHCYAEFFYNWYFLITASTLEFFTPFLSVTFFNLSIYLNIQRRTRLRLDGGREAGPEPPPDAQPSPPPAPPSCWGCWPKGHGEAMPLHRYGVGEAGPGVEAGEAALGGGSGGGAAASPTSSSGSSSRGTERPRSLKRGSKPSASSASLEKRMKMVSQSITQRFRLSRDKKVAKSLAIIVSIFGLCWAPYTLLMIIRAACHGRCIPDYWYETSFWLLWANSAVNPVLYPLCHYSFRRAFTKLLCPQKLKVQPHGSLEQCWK
Sequence of mouse H3R (P58406 whole entry): as the sequence (Q9QYN8 whole entry) above, with T15A, A286T, A290G, R387H, I389V counted along it

The first assay has as its target mouse H3R (Mus musculus, UniProt P58406). In words: receptor binding. To be noted: PSS cis.
Regarding `c1ccc(/N=N\c2cccc(Cc3c[nH]cn3)c2)cc1` [compound 65, cis-65 (PSS cis)], the pKi entry was “high nM (trans) to low μM (PSS cis) binding affinities for both mouse and rat”.

Staying with this assay, now noted: trans.
As to `c1ccc(/N=N/c2cccc(Cc3c[nH]cn3)c2)cc1` [compound 65, trans-65], the pKi entry was “high nM (trans) to low μM (PSS cis) binding affinities for both mouse and rat”.

The target in another assay is human histamine H3 receptor (hH3R) (Homo sapiens, UniProt Q9Y5N1). Description: [3H]-Nα-methylhistamine competition binding.
Sequence of human histamine H3 receptor (hH3R) (Q9Y5N1 whole entry): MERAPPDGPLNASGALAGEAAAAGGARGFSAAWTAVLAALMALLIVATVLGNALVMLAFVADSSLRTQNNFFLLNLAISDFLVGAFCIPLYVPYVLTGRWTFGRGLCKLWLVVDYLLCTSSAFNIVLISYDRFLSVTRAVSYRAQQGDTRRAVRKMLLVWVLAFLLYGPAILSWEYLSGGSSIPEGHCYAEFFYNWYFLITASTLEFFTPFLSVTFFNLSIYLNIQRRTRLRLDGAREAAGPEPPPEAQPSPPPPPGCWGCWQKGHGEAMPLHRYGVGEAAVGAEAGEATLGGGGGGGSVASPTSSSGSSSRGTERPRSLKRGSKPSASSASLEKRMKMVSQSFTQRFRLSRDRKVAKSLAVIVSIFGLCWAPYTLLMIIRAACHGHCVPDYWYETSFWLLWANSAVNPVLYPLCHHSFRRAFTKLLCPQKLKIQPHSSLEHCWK
Settings: not given
Take `Clc1ccc(/N=N/c2cccc(Cc3c[nH]cn3)c2)cc1` [compound 71, 71 trans]: the inhibition constant (Ki) is 174 nM.
`Fc1cccc(F)c1/N=N\c1cccc(Cc2c[nH]cn2)c1` [compound 69, 69 cis (PSS cis)] gave an inhibition constant Ki of 55 nM.
Still for that read-out and setting: to `Cc1ccc(/N=N\c2cccc(Cc3c[nH]cn3)c2)cc1` [compound 78, 78 cis (PSS cis)] belongs 1950 nM; to `c1ccc(/N=N\c2cccc(Cc3c[nH]cn3)c2)cc1` [compound 65, cis-65 (PSS cis)], 32.4 nM.
Same read-out and setting: the result for `c1ccc(/N=N/c2cccc(Cc3c[nH]cn3)c2)cc1` [compound 65, trans-65] reads 3.8 nM.
Still for that read-out and setting: the result for `Cc1cc(Cc2c[nH]cn2)cc(/N=N\c2ccccc2)c1` [compound 74, 74 cis (PSS cis)] reads 7410 nM; that for `Cc1ccc(/N=N/c2cccc(Cc3c[nH]cn3)c2)cc1` [compound 78, 78 trans], 1910 nM; that for `Cc1ccccc1/N=N/c1cccc(Cc2c[nH]cn2)c1` [compound 76, 76 trans], 19.1 nM.
`Cc1c(Cc2c[nH]cn2)cccc1/N=N/c1ccccc1` [compound 72, 72 trans] had an inhibition constant (Ki) of 2690 nM.
Same read-out and setting: to `Cc1cccc(/N=N/c2cccc(Cc3c[nH]cn3)c2)c1` [compound 77, 77 trans] belongs 40.7 nM; to `Fc1cccc(/N=N\c2cccc(Cc3c[nH]cn3)c2)c1` [compound 67, 67 cis (PSS cis)], 38 nM; to `Cc1ccccc1/N=N\c1cccc(Cc2c[nH]cn2)c1` [compound 76, 76 cis (PSS cis)], 398 nM.
On the same count and under the same terms, the result for `Clc1ccccc1/N=N\c1cccc(Cc2c[nH]cn2)c1` [compound 70, 70 cis (PSS cis)] reads 141 nM; that for `Cc1cc(Cc2c[nH]cn2)cc(/N=N/c2ccccc2)c1` [compound 74, 74 trans], 1780 nM; that for `Fc1ccc(/N=N/c2cccc(Cc3c[nH]cn3)c2)cc1` [compound 68, 68 trans], 20.4 nM.
Same read-out and setting: to `Fc1ccccc1/N=N\c1cccc(Cc2c[nH]cn2)c1` [compound 66, 66 cis (PSS cis)] belongs 81.3 nM; to `Fc1ccccc1/N=N/c1cccc(Cc2c[nH]cn2)c1` [compound 66, 66 trans], 5.25 nM.
As for `Clc1ccc(/N=N\c2cccc(Cc3c[nH]cn3)c2)cc1` [compound 71, 71 cis (PSS cis)], affinity was put at a Ki of 1050 nM.
`Fc1cccc(F)c1/N=N/c1cccc(Cc2c[nH]cn2)c1` [compound 69, 69 trans] gave an inhibitory constant (Ki) of 10 nM.
Still for that read-out and setting: the result for `Cc1cccc(/N=N\c2cccc(Cc3c[nH]cn3)c2)c1` [compound 77, 77 cis (PSS cis)] reads 347 nM; that for `Fc1cccc(/N=N/c2cccc(Cc3c[nH]cn3)c2)c1` [compound 67, 67 trans], 4.47 nM; that for `Fc1ccc(/N=N\c2cccc(Cc3c[nH]cn3)c2)cc1` [compound 68, 68 cis (PSS cis)], 309 nM.
The same measure, in the same setting: the result for `Cc1c(Cc2c[nH]cn2)cccc1/N=N\c1ccccc1` [compound 72, 72 cis (PSS cis)] reads 3550 nM; that for `Clc1ccccc1/N=N/c1cccc(Cc2c[nH]cn2)c1` [compound 70, 70 trans], 13.8 nM.

Staying with this assay, now noted: kept in dark, >99 % trans.
Turning to `Fc1ccc(/N=N/c2ccccc2)cc1Cc1c[nH]cn1` [compound 79, 79 trans], the “pK i trans ± SEM” value came to 7.81±0.07.
Still for that read-out and setting: the result for `Fc1ccc(Cc2c[nH]cn2)cc1/N=N/c1ccccc1` [compound 80, 80 trans] reads 8.39±0.06; that for `Cc1ccc(/N=N/c2ccccc2)cc1Cc1c[nH]cn1` [compound 73, 73 trans], 6.90±0.06; that for `Cc1ccc(Cc2c[nH]cn2)cc1/N=N/c1ccccc1` [compound 75, 75 trans], 7.15±0.03.

Another assay has as its target rat H3R (Rattus norvegicus, UniProt Q9QYN8). In words: receptor binding. The settings on record: PSS cis.
With `c1ccc(/N=N\c2cccc(Cc3c[nH]cn3)c2)cc1` [compound 65, cis-65 (PSS cis)], the pKi entry is “high nM (trans) to low μM (PSS cis) binding affinities for both mouse and rat”.

Still in this assay, the particulars now being: trans.
On to `c1ccc(/N=N/c2cccc(Cc3c[nH]cn3)c2)cc1` [compound 65, trans-65], for which the pKi entry is “high nM (trans) to low μM (PSS cis) binding affinities for both mouse and rat”.
